{"source": "patent US20060258703A1", "about": "“Remedy for pruritus comprising piperidine derivative as the active ingredient” (ONO PHARMACEUTICAL CO., LTD., priority 2003, published 2006)", "test_system": "ovalbumin-induced eye scratching behavior in actively sensitized male Hartley guinea pigs", "experiment": "inhibitory effect on eye itching using albumin induced eye itching model", "format": "in vivo, guinea pig", "conditions": "for number of eye scratching times / eye scratching behavior inhibition ratio: 10 μL/eye instilled 30 min before ovalbumin, n=8; for number of eye scratching times: counted for 60 min, average; for eye scratching behavior inhibition ratio: ratio to control (average)", "procedure": "The inhibitory effect on eye itching of piperidine derivatives of the present invention was studied using albumin induced eye itching model.\n1. The test of inhibitory effect on eye itching using albumin induced eye itching model\nAluminum hydroxide gel absorption ovalbumin (20 μg/mL)was dissolved in physiological saline solution, each solution ([…]) was injected subconjunctivally to the both eyeballs of five-week-old male Hartley guinea pigs to sensitize them actively. 14 days after sensitization, 1.0% (W/V) of ovalbumin physiological saline solution was instilled into both their eyes, 10 μL/eye, respectively.\nAs test compounds, a suspension of 0.01% (W/V) and 0.1% (W/V) of {4-cyano-4-[3-(cyclopentyloxy)-4-(difluoromethoxy)phenyl]piperidine-1-yl}acetic acid monohydrate (hereinafter, it is the compound A) in 0.1% hydroxypropylmethylcellulose was prepared and it was instilled into both eyes of the above-mentioned guinea pigs, 10 μL/eye, respectively, 30 minutes before the instillation of ovalbumin. 0.1% hydroxypropylmethylcellulose was used as control.\nThe behavior of guinea pigs for 60 minutes after ovalbumin instillation was video recorded. The inhibitory effect on eye itching was evaluated by counting each number of eye scratching times in case of instillation of each test compound solution and control. […] In addition, the number of example is eight. eye scratching behavior inhibition ratio=100−([the number of eye scratching times of the test compound]÷[the number of eye scratching times of control])×100"}
{"compound": "N#CC1(c2ccc(OC(F)F)c(OC3CCCC3)c2)CCN(CC(=O)O)CC1.O", "note": "[Compound A, {4-cyano-4-[3-(cyclopentyloxy)-4-(difluoromethoxy)phenyl]piperidine-1-yl}acetic acid monohydrate]", "values": [{"measurement": "number of eye scratching times", "setting": "0.01% (W/V) suspension in 0.1% hydroxypropylmethylcellulose", "value": 44.6, "unit": "times"}, {"measurement": "eye scratching behavior inhibition ratio", "setting": "0.01% (W/V) suspension", "value": 34.4, "unit": "%"}, {"measurement": "number of eye scratching times", "setting": "0.1% (W/V) suspension in 0.1% hydroxypropylmethylcellulose", "value": 29.0, "unit": "times"}, {"measurement": "eye scratching behavior inhibition ratio", "setting": "0.1% (W/V) suspension", "value": 57.4, "unit": "%"}, {"measurement": "number of eye scratching times compared to control (in words)", "setting": "guinea pigs given 0.01% and 0.1% eye instillation, extent almost depends on concentration", "value": "decreases significantly compared to control"}]}
